Measured values reported in ChEMBL document CHEMBL1124555, “9-Amino-1,2,3,4-tetrahydroacridin-1-ols: synthesis and evaluation as potential Alzheimer's disease therapeutics” (J Med Chem, 1989).

Columns and labels:
[1] = molecular target: T1, Acetylcholinesterase (Rattus norvegicus, UniProt P37136)
T1 sequence (P37136 whole entry): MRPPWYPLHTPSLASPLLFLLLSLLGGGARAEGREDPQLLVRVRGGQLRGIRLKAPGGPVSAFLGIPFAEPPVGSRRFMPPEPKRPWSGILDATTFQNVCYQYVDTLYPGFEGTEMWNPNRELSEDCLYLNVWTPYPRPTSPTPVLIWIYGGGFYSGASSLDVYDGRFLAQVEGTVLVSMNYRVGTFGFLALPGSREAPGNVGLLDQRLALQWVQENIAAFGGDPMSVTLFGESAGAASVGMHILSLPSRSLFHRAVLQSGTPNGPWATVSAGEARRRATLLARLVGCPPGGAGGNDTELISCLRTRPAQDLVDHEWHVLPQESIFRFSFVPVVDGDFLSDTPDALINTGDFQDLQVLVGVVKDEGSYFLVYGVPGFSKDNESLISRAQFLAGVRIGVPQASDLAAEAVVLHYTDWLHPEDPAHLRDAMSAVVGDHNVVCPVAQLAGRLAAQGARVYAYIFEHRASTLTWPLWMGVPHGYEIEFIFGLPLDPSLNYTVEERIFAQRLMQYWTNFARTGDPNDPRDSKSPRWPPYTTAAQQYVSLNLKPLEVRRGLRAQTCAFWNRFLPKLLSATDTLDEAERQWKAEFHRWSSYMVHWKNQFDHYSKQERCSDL
Description: In vitro inhibition against acetylcholinesterase in rat striata.

[2] = molecular target: Sodium-dependent dopamine transporter (Rattus norvegicus, UniProt P23977); format: functional
Description: Inhibition of the reuptake of dopamine in rat corpora striata.

[3] = molecular target: Sodium-dependent serotonin transporter (Rattus norvegicus, UniProt P31652); format: functional
Description: Inhibition of serotonin reuptake in rat whole brains without cerebellum

[4] = Toxicity was evaluated in rats, after intraperitoneal administration;Value ranges from(40-80); format: organism-based; settings: rat, in vivo, ip
[5] = species on record: Rattus norvegicus; test: cells
Description: Compound was evaluated for inhibition of the reuptake of norepinephrine

[6] = species on record: Mus musculus; format: functional; settings: at 0.16 mg/kg
Description: Reversal of scopolamine-induced memory impairment in mice at 0.16 mg/Kg administered subcutaneously.

[7] = species on record: Mus musculus; format: functional; settings: at […]
Description: Reversal of scopolamine-induced memory impairment in mice at 0.31 mg/Kg administered subcutaneously.

[8] = species on record: Mus musculus; format: functional; settings: at 0.63 mg/kg
Description: Reversal of scopolamine-induced memory impairment in mice at 0.63 mg/Kg administered subcutaneously.

[9] = species on record: Mus musculus; format: functional; settings: at 1.25 mg/kg
Description: Reversal of scopolamine-induced memory impairment in mice at 1.25 mg/Kg administered subcutaneously.

[10] = species on record: Mus musculus; format: functional; settings: at 2.5 mg/kg
Description: Reversal of scopolamine-induced memory impairment in mice at 2.5 mg/Kg administered subcutaneously.

[11] = species on record: Mus musculus; format: functional; settings: at 5 mg/kg
Description: Reversal of scopolamine-induced memory impairment in mice at 5 mg/Kg administered subcutaneously.

[12] = Toxicity was evaluated in rats, after intraperitoneal administration;Value ranges from (40-80); format: organism-based; settings: rat, in vivo, ip
[13] = molecular target: Norepinephrine transporter (Rattus norvegicus, UniProt Q9WTR4)
Description: Inhibition of norepinephrine reuptake in rat whole brains minus cerebellar

[14] = test system: Mus musculus; test: Intra peritoneal administration for the reversal of tetrabenazine ptosis in mice; format: functional
[15] = in vivo; settings: rat, ip
Description: Toxicity evaluated in rats after intraperitoneal administration.

[16] = Toxicity was evaluated in rats, after intraperitoneal administration;Value ranges from (40-80).; format: organism-based; settings: rat, in vivo, ip
[17] = Toxicity was evaluated in mice, after intraperitoneal administration;Value ranges from(83-107); format: organism-based; settings: mouse, in vivo, ip
[18] = Toxicity was evaluated in rats, after intraperitoneal administration;Value ranges from 50-60; format: organism-based; settings: rat, in vivo, ip
[19] = species on record: Mus musculus; test: Compound was tested in nbm model of mice, for the dose at which reversal of retention deficit in lesioned animals and enhanced learning in sham-pperated animals was observed; format: functional
[20] = molecular target: T1, Acetylcholinesterase; test: In vitro inhibition against acetylcholinesterase in rat striatal; format: functional
[21] = in vivo; settings: mouse, ip

Norepinephrine transporter, sequence (Q9WTR4 whole entry): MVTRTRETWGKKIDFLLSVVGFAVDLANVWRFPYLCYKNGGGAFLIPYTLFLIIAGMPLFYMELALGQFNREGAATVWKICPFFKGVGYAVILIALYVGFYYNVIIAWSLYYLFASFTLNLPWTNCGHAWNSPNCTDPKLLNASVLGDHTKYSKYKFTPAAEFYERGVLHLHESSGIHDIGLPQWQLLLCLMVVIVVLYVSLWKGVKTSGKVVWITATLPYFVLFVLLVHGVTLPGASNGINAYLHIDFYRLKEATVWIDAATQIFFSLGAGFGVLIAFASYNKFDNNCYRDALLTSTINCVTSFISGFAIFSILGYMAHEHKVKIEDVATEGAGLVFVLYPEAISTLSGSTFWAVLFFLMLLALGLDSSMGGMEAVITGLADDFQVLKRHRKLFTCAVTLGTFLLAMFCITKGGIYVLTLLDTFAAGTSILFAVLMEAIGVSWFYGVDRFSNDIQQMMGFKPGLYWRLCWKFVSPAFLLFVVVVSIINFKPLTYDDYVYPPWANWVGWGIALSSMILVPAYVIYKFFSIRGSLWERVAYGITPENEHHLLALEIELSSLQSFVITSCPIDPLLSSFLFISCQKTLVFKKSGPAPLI
Sodium-dependent serotonin transporter, sequence (P31652 whole entry): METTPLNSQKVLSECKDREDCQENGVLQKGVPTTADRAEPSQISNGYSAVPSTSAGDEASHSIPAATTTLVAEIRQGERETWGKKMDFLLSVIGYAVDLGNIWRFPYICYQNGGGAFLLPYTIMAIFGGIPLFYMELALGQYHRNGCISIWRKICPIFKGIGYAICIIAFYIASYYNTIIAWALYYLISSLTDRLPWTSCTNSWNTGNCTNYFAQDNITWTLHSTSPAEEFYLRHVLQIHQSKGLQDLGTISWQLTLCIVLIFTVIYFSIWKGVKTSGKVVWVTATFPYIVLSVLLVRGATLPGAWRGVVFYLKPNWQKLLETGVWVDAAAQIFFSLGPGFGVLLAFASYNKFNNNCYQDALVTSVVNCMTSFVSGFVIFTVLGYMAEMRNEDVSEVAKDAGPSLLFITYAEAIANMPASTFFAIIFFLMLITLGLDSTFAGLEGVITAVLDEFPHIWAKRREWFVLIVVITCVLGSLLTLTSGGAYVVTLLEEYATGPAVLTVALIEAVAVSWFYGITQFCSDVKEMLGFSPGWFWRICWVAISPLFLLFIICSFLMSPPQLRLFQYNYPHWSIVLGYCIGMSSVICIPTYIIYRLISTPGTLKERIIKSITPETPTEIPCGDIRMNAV
Sodium-dependent dopamine transporter, sequence (P23977 whole entry): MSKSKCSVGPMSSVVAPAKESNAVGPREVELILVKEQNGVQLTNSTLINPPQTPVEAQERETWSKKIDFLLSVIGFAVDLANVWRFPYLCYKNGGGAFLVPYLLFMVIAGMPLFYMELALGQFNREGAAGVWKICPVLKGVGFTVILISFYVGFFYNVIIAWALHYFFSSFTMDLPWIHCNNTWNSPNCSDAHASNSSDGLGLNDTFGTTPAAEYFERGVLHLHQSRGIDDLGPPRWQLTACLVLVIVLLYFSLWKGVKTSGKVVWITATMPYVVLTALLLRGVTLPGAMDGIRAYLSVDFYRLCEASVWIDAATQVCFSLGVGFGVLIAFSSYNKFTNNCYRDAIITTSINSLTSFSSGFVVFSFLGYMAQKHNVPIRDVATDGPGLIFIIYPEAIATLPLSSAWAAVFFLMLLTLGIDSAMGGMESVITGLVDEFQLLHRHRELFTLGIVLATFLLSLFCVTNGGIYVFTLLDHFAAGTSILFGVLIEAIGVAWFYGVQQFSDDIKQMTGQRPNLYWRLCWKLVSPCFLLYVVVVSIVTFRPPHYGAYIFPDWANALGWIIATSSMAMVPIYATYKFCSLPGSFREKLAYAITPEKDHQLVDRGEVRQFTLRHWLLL

SMILES	IC50 [1] [µM]	IC50 [2] [µM]	IC50 [3] [µM]	LD50 [4] [mg/kg]	Animals [6] [%]	Animals [7] [%]	Animals [8] [%]	Animals [9] [%]	Animals [10] [%]	Animals [11] [%]	IC50 [13] [µM]	ED50 [14] [mg/kg]	other results
CCCNc1c2c(nc3ccccc13)CCCC2O (centres undefined)	13.3	> 20	> 20	< 80	–	–	–	–	–	–	–	–	IC50 [5]: > 20 µM
CNc1c2c(nc3ccccc13)CCCC2O (centres undefined)	1.76	> 20	> 20	–	0	7	0	7	7	7	> 20	–	LD50 [12]: < 80 mg/kg
Cc1ccccc1CNc1c2c(nc3ccccc13)CCCC2O (centres undefined)	5.89	0.25	9	< 80	0	7	7	13	7	0	0.053	25.3	–
Nc1c2c(nc3ccc(Cl)cc13)CCCC2O (centres undefined)	24.7	–	–	–	–	–	–	–	–	–	–	–	IC50 [5]: > 10 µM; LD50 [15]: 80 mg/kg
OC1CCCc2nc3ccccc3c(NCc3ccccc3C(F)(F)F)c21 (centres undefined)	13.3	0.95	3.8	–	38	23	13	20	13	33	0.081	16.2	LD50 [15]: 80 mg/kg
Cc1cccc(CNc2c3c(nc4ccccc24)CCCC3O)c1 (centres undefined)	24.5	0.51	5.5	< 80	7	7	20	20	13	20	0.22	–	–
Nc1c2c(nc3cc(C(F)(F)F)ccc13)CCCC2O (centres undefined)	1.77	–	–	< 80	40	26	71	33	21	33	–	–	–
OC1CCCc2nc3ccccc3c(NCc3cccc(F)c3)c21 (centres undefined)	13.1	0.3	6.2	–	33	23	7	0	14	21	0.12	–	LD50 [16]: < 80 mg/kg
OC1CCCc2nc3ccccc3c(NCc3ccccc3)c21 (centres undefined) [SURONACRINE]	–	0.3	11	–	27	50	20	13	21	36	0.07	27.4	LD50 [17]: 94 mg/kg; LD50 [18]: < 60 mg/kg; Dose [19]: 20 mg/kg; IC50 [20]: 32.2 µM
Nc1c2c(nc3ccccc13)CCCC2O (centres undefined) [VELNACRINE]	4	> 20	> 20	–	14	20	33	20	31	33	> 20	–	LD50 [16]: < 80 mg/kg; LD50 [21]: 162 mg/kg
